Experimental data published in patent US20160058829A1, “ANTI-FIBROTIC PEPTIDES AND THEIR USE IN METHODS FOR TREATING DISEASES AND DISORDERS CHARACTERIZED BY FIBROSIS” (Thrasos Innovation, Inc., priority 2011, published 2016).
Positions of bridges follow the written chain, without caps; N, C: chain ends.

How the values were obtained:
[1] = tested on: Alk-3 deleted mice and control mice, NTN; test: NTN in Alk-3 deleted (γGT-Cre; Alk3 flox/flox) and control mice; format: in vivo
Description: FIG. 76A-FIG. 76T THR-123 acts on tubule Alk3 as a receptor in kidney disease models. FIG. 76A-FIG. 76D, The effect of THR-123 on the IRI model kidney injury in Alk3^flox/flox and […]GTCre; Alk3^flox/flox mice. After ischemia reperfusion injury the mice were given THR-123 orally (5 mg/kg/day) till the day of sacrifice. FIG. 76A-FIG. 76C, the representative H&E staining picture of indicated group of mice are shown. FIG. 76D. Percentage renal tubular necrosis in IRI. Ten fields in each group were analyzed. Data are shown as mean±s.e.m. in the graph. FIG. 76E-FIG. 76T, The effect of THR-123 on the NTN model kidney injury in Alk3^flox/flox and gGTCre; Alk3^flox/flox mice. Six weeks after NTN was introduced in the indicated groups of mice, mice were treated with PBS or THR-123 orally. FIG. 76E-FIG. 76H, the representative MTS staining picture of indicated group of mice are shown. FIG. 76I, Morphometric analyses from 9 weeks of NTN models in indicated groups. FIG. 76J-FIG. 76N, Macrophage accumulation analysis in the kidney of NTN model in Alk3^flox/flox and gGTCre; Alk3^flox/flox mice. FIG. 76J-FIG. 76M, Mac-1 immunofluorescence study of indicated groups of mice. FIG. 76N, The number of macrophages per field of view (×400 magnification) was assessed by counting positively labeled cells in 5 random fields of view per slide, with 5 slides per experimental group. Data are shown as mean±s.e.m. in the graph. FIG. 76O-FIG. 76S, EMT analysis, FIG. 76O-FIG. 76R, E-cadherin/FSP1 immunolabeling of kidney in NTN-induced Alk3^flox/flox and GTCre; Alk3^flox/flox mice treated with either PBS or THR-123. FIG. 76S. Percent of E-cadherin/FSP1 double positive tubule. 500 tubules per slide, 5 slides per experimental group were analyzed. Data are expressed as mean±s.e.m. in the graph. FIG. 76T, Blood urea nitrogen measurement in 6 and 9 weeks of NTN in indicated groups of mice (all n=4).
FIG. 79A-FIG. 79D. Tubule cell apoptosis was analyzed in frozen kidney sections of indicated groups of animals by TUNEL staining. Representative pictures were shown. FIG. 79D. Quantification of TUNEL positive tubule cells. The number of TUNEL positive tubules per field of view (×200 magnification) was assessed by counting positively labeled cells in 5 random fields of view per slide, with 5 slides per experimental group.
Alk-3 flox mice are provided by Dr. Yuji Mishina, National Institutes of Health with material transfer agreements. γGT-Cre mice are provided from Dr. Eric Neilson, Vanderbilt University Medical Center. NTN is induced by the method described above.

[2] = Pharmacokinetics and tissue distribution of 125I-labeled THR-123; format: in vivo, Wistar rats
Excerpt: FIG. 45A-FIG. 45G Pharmacokinetics of THR-123. FIG. 45A. BMP7 structure figure with the residue weights resulting from the analysis mapped on to it. FIG. 45B, FIG. 45C. Radio-ligand receptor binding assays specific for individual type I receptors, Alk-3 (FIG. 45B) and Alk-6 (FIG. 45C). Highly purified extra-cellular domain (ECD) of Alk-3 or Alk-6 (expressed as a fusion protein with Fc domain) served as a receptor. In each assay purified receptor was immobilized on each well and peptide analog or unlabeled BMP7 was added, followed by ^125I-labeled BMP7. Radiolabeled BMP7 complex was counted in an auto-gamma counter. Results were expressed as the mean±s.e.m. Unlabeled BMP7, which served as a positive control in both assays, gave linear dose-related response curves. FIG. 45D, FIG. 45E. Concentration of THR-123 in systemic circulation of Wistar rats following iv injection of THR-123 (^125I-Tyr) via the tail vein determined by total radioactivity measurement. […] FIG. 45F. Tissue distribution of ^125I-THR-123. Six hours after intravenous administration of ^125I labeled-THR-123 in rats at a dose of 6.25 mg/kg-body weight, tissues were harvested and analyzed by automatic gamma well counter. […] FIG. 45G. Oral administration of THR-123 and elimination of THR-123 from the body. Radioactivity of orally administrated ^125I labeled-THR-123 at a dose of 5 mg/kg body weight was localized in the kidney between 1 and 6 hours after administration and peaked at around 3 hours.
The persistence of THR-123 in systemic circulation was evaluated using iv-administered ^125I-labeled compound and following the radioactivity decay.

[3] = tested on: cisplatin-induced nephrotoxicity in rats; test: Cisplatin-induced nephrotoxicity in rats; format: in vivo; conditions: cisplatin plus THR-123 versus cisplatin alone
Excerpt: FIG. 38 Tumor necrosis factor-a (TNF-a) production via p38 mitogen-activated protein kinase (MAPK) is one of the pivotal mechanisms in the development of AKI induced by a nephrotoxic agent, cisplatin (Ramesh, G and Reeves, W B. Am J Physiol Renal Physiol 289:F166-F174, 2005). Therefore THR-123 was further examined to determine if the compound is capable of inhibiting cisplatin-induced nephrotoxicity in animals. The upper right and left panels in the figure show Kidney sections immunostained for ICAM-1 expression and the lower right and left panels show immunostaining for the presence of macrophages. The kidney sections in the left column were treated with cisplatin alone and the right column panels were treated with cisplatin and THR-123. Arrows in the upper panel indicate ICAM-1 expression which was reduced by THR-123. Arrows in the lower panel indicate infiltration of macrophages as detected by Mac CD-68 staining, which was reduced by THR-123.

Smad 1/5/8 = Smad 1/5/8 phosphorylation and nuclear translocation in HK-2 cells; format: cell-based, human
Description: Human renal proximal tubule epithelial cells (HK-2) were incubated in the presence (right panel) and absence (left panel) of THR-123. The cells were washed, and then incubated with the primary antibody against phospho Smad 1/5/8, followed by immunostaining with a fluorescently labeled secondary antibody. The significance of pSmad 1/5/8 in renal fibrosis is tied to BMP7 suppression of TGF-β-dependent profibrotic pathways, which are central to renal fibrotic injury. Specifically, BMP7 suppression of such TGF-β-dependent profibrotic pathways is mediated in part by the activation of downstream BMP target proteins, Smad 1, 5, and 8. (Manson S R et al., J. Urol. 85:2523-30, 2011).

## (H)-CYFDDSSNVLCKKYRS-(OH) (H-CYFDDSSNVLCKKYRS-OH; disulfide 1-11; SMILES CC(C)C[C@@H]1NC(=O)[C@H](C(C)C)NC(=O)[C@H](CC(N)=O)NC(=O)[C@H](CO)NC(=O)[C@H](CO)NC(=O)[C@H](CC(=O)O)NC(=O)[C@H](CC(=O)O)NC(=O)[C@H](Cc2ccccc2)NC(=O)[C@H](Cc2ccc(O)cc2)NC(=O)[C@@H](N)CSSC[C@@H](C(=O)N[C@@H](CCCCN)C(=O)N[C@@H](CCCCN)C(=O)N[C@@H](Cc2ccc(O)cc2)C(=O)N[C@@H](CCCNC(=N)N)C(=O)N[C@@H](CO)C(=O)O)NC1=O) [SEQ ID NO: 1]
[1]; Alk3-deleted mice
  renal function (blood urea nitrogen), NTN: not realized
[1]; Alk3 deleted mice
  EMT program in the tubules, NTN: did not inhibit
  apoptosis, NTN kidney: no effect on apoptosis
  macrophage accumulation in the kidney, NTN: did not inhibit
[1]; Alk-3 deleted mice
  renal injury and fibrosis, NTN: no efficacy
[1]; control mice
  EMT program in the tubules, NTN: inhibition
  macrophage accumulation in the kidney, NTN: inhibition
  renal function (blood urea nitrogen), NTN: restored renal function
  renal injury and fibrosis, NTN: successful in controlling renal injury and fibrosis
[1]; wild type kidney
  apoptosis, NTN kidney: inhibit apoptosis
[2]; iv
  share of the injected dose in the beta phase: 10%
[2]; iv, 125I-labeled
  alpha phase half-life: very short half-life
  beta phase half-life: 55 to 58 min
  decrease of THR-123 levels in plasma and whole blood within 5 minutes: ~90%
[2]; iv, tail vein, total radioactivity
  share of the injected dose in the alpha phase: approximately 90%
[2]; oral, 24 hours after administration
  clearance of radioactivity from the kidney: completely cleared
[2]; six hours after iv 6.25 mg/kg, listed as THR-123, 6.25 mg/kg
  tissue distribution of radioactivity: majority of the radioactivity was still localized in the kidney and bladder
[3]
  ICAM-1 expression in kidney sections: reduced
  infiltration of macrophages (Mac CD-68 staining): reduced
Smad 1/5/8
  Smad 1/5/8 phosphorylation and nuclear translocation: induces Smad 1/5/8 phosphorylation and nuclear translocation
